The values below come from patent US10174016B2 (BAYER AKTIENGESELLSCHAFT, priority 2014, dated 2019).

Where two headings read alike, the source gives them in different places.

The target of one data set is CYP1A2 (Homo sapiens (Human), UniProt P05177). As to the kind of experiment: CYP inhibition assay, CYP1A2. The protocol: (§1) Method Description CYP Inhibition Assay
(§2) Data analysis: The CYP-mediated activities in the presence of inhibitors were expressed as percentages of the corresponding control values. A sigmoid-shaped curve was fitted to the data, and the enzyme inhibition parameter IC50 was calculated using a nonlinear least-squares regression analysis of the plot of percent control activity versus concentration of the test inhibitor.

The next data set has as its target CYP2D6 (Homo sapiens (Human), UniProt P10635). In words: CYP inhibition assay, CYP2D6. It counts as in vitro ADME. The conditions noted are these: human liver microsomes, probe dextromethorphan. As for the experimental part:
as §1, §2
A general note: Liver microsomes are vesicles of endoplasmic reticulum, rich in cytochrome P450 enzymes.

The target of data set [1] is T1, CYP3A4 (Homo sapiens (Human), UniProt P08684). In words: Pre-incubation CYP inhibition assay, CYP3A4 (time dependent inhibition). It is filed as in vitro ADME. The conditions noted are these: human liver microsomes, probe midazolam, 30 min pre-incubation; read-out: CYP3A4 with preincubation IC50.
Source text: as §1

The target in a further data set is CYP2C9 (Homo sapiens (Human), UniProt P11712). As to the kind of experiment: CYP inhibition assay, CYP2C9. It is filed as in vitro ADME. The conditions noted are these: human liver microsomes, probe diclofenac. As for the experimental part:
as §1, §2

Data set [2] deals with T1, CYP3A4. As to the kind of experiment: CYP inhibition assay, CYP3A4. It counts as in vitro ADME. The conditions noted are these: human liver microsomes, probe midazolam. The protocol: as §1, §2
The subject of a further data set is rat hepatocytes. As to the kind of experiment: In vitro metabolic stability in rat hepatocytes. It counts as in vitro ADME, Han Wistar rats. The conditions noted are these: 1 μM, 1.0×10^6 cells/mL, maximal oral bioavailability calculated from half-life. The protocol: Determination of in vitro metabolic stability in rat hepatocytes (including calculation of hepatic in vivo blood clearance (CL))
Hepatocytes from Han Wistar rats were isolated via a 2-step perfusion method. After perfusion, the liver was carefully removed from the rat: the liver capsule was opened and the hepatocytes were gently shaken out into a Petri dish with ice-cold Williams' medium E (WME). The resulting cell suspension was filtered through sterile gaze in 50 mL falcon tubes and centrifuged at 50×g for 3 min at room temperature. The cell pellet was resuspended in 30 mL WME and centrifuged through a Percoll® gradient for 2 times at 100×g. The hepatocytes were washed again with WME and resuspended in medium containing 5% FCS. Cell viability was determined by trypan blue exclusion.
The test compound was added to a final concentration of 1 μM. […] Samples were frozen at −20° C. overnight, subsequently centrifuged for 15 minutes at 3000 rpm and the supernatant was analyzed with an Agilent 1200 HPLC-system with LCMS/MS detection.
The half-life of a test compound was determined from the concentration-time plot. From the half-life (kel: slope of concentration-time plot; half-life=ln 2/kel) the intrinsic clearances were calculated. Together with the additional parameters liver blood flow, amount of liver cells in vivo and in vitro.
(§3) Metabolic instability is often the main clearance mechanism of xenobiotica leading to a high CL and low bioavailability which may eventually result in a short half-life and a low exposure after oral administration. Thus, reducing the susceptibility of metabolic degradation usually leads to a more favourable pharmacokinetic profile. When using liver microsomes as incubation matrix main phase I metabolic reactions, typically oxidoreductive reactions by cytochrome P450 enzymes and flavin mono-oxygenases (FMO) and hydrolytic reactions by esterases/amidases/epoxidhydrolases, are described. When the incubation of the test compound is performed in a hepatocyte matrix all potential hepatic metabolic processes (phase I and phase II) are covered.

For another data set, the target named is CYP2C8 (Homo sapiens (Human), UniProt P10632). As to the kind of experiment: CYP inhibition assay, CYP2C8. It counts as in vitro ADME. Conditions: human liver microsomes, probe amodiquine. The protocol:
as §1, §2

Data set [3] in a line: In vitro metabolic stability in liver microsomes (calculation of CL and Fmax). Conditions: 1 μM, 0.5 mg/mL protein, maximal oral bioavailability calculated from half-life. It counts as in vitro ADME, human. The protocol:
In Vitro Metabolic Stability Assays Determination of in vitro metabolic stability in microsomes (including calculation of hepatic in vivo blood clearance (CL) and of maximal oral bioavailability (Fmax))
The metabolic assay was started shortly afterwards by adding the test compound to the incubation at a final volume of 1 mL. Organic solvent in the incubations was limited to […] dimethylsulfoxide (DMSO) and ≤1% acetonitrile. […] Samples were frozen at −20° C. overnight, subsequently centrifuged for 15 minutes at 3000 rpm and the supernatant was analyzed with an Agilent 1200 HPLC-system with LCMS/MS detection.
The half-life of a test compound was determined from the concentration-time plot. From the half-life (kel: slope of concentration-time plot; half-life=ln 2/kel) the intrinsic clearances were calculated. Together with the additional parameters liver blood flow, specific liver weight and microsomal protein content the hepatic in vivo blood clearance (CL) and the maximal oral bioavailability (Fmax) were calculated for the different species.
as §3

In another data set the test system is vaginal hyperalgesia. In words: Rat dyspareunia model (visceromotor response to vaginal distension). It counts as in vivo, female Sprague Dawley rats.
Data set [4] is described as follows: Human liver cytosol stability assay. It is filed as in vitro ADME. The conditions noted are these: human liver cytosol 1 mg/mL, 1 or 10 μM, 37° C. The protocol: Human Liver Cytosol Stability Assay
Method description: Human liver cytosol (pooled, >30 male and female donors) was incubated with individual test compounds in order to compare the extent of depletion of test compound and formation of the respective oxidised metabolite. […] An incubation volume of 1000 μL was used. The test compound was added from a stock solution in acetonitrile at 1 or 10 μM concentration in the incubation. Incubations were performed at 37° C. Reactions were stopped at 0 h and 4 h after incubation by addition of 100 μL acetonitrile to 250 μL of incubation mixture. Precipitated proteins were removed by centrifugation at approximately 3000 rpm. The supernatants were stored at approximately −20° C. until they were analysed. […]
Data analysis: The depletion of the test compound and formation of the corresponding metabolites were determined by decrease or increase of the corresponding peak area in the chromatogram after UV detection at approximately 300 nm 4 h after incubation compared to that at 0 h after incubation. […]

Data set [5] in a line: In vivo pharmacokinetics in dogs. The conditions noted are these: Beagle, plasma, dog.
Description: For pharmacokinetics after intragastral administration test compounds were given intragastral to fasted rats, dogs and monkeys. […] An aliquot of 100 μL from the supernatant (plasma) was taken and precipitated by addition of 400 μL cold acetonitril and frozen at −20° C. over night. Samples were subsequently thawed and centrifuged at 3000 rpm, 4° C. for 20 minutes. Aliquots of the supernatants were taken for analytical testing using an Agilent HPLC-system with LCMS/MS detection. PK parameters were calculated by non-compartmental analysis using a PK calculation software, (e.g. Phoenix WinNonlin®, Certara USA, Inc.).
PK parameters directly taken or calculated from concentration time profiles after i.g.: Cmax: Maximal plasma concentration (directly taken from the profile in mg/L); Cmaxnorm: Cmax divided by the administered dose (in kg/L); Tmax: Time point at which Cmax was observed (in h).
Data set [6] concerns CFA-induced mechanical hyperalgesia. In words: Mouse CFA in vivo model (von Frey filaments). Also noted: species or system Female C57BL/6 mice. Conditions: 25 mg/kg p.o. b.i.d., 72 hrs after CFA-injection. The protocol: Mouse CFA In Vivo Model […] Mechanical hyperalgesia was measured using von Frey filaments. Briefly, von Frey filaments were being used to stimulate the animal's hindpaw and a behavioural response was measured depending on the strength of the von Frey filament used. The strength of the filament was expressed in [g] and the threshold was recorded when a response of the animal was observed. Both CFA-injected and contralateral response thresholds were determined for each mouse and in each treatment group 72 hrs after CFA-injection. Compound application was done p.o. b.i.d., starting one hour before CFA injection. Data were expressed as the mean threshold for each treatment group. Data were analysed by performing a one way ANOVA over the different dose groups. Planned comparison of means (each versus vehicle) was performed by using a Dunnett's post hoc test, provided that a main effect was detected.

For data set [7] the test system is unchanged. In words: Rat CFA in vivo model (mechanical hyperalgesia, paw withdrawal threshold). Set-up: species or system Male Sprague Dawley rats. Conditions: 3 mg/kg p.o., dosed 24 hours after CFA injection. The protocol:
Rat CFA In Vivo Model Male Sprague Dawley rats were used. Mechanical hyperalgesia was induced by injecting 25 μl of Complete Freund's Adjuvant (CFA) into the plantar surface of one hind paw. Mechanical hyperalgesia was measured using the Pressure Application Measurement apparatus (Ugo Basile, Gemonio, Italy). Briefly, a linearly increasing pressure was applied to an area of ˜50 mm2 of the plantar side of the hind paw until a behavioural response (paw withdrawal) was observed or until the pressure reached 1000 gf. The pressure at which the behavioural response occurred was recorded as the “Paw Withdrawal Threshold” (PWT). Both CFA-injected and contralateral PWTs were determined for each rat, in each treatment group and at each time point of the studies. […] Compounds were dosed 24 hours after CFA injection. Data were expressed as the mean PWT for each treatment group and at each time point. Data were analysed by performing a repeated measures two way ANOVA (time×treatment). Planned comparison of means (each versus vehicle) was performed by using a Dunnett's post hoc test, provided that a main effect was detected. […] More preferred examples of the present invention show rat CFA in vivo efficacy in the ‘Paw withdrawal threshold 6 hours post drug’ measure when dosed at 3 mg/kg p.o.

T1 sequence (P08684 whole entry): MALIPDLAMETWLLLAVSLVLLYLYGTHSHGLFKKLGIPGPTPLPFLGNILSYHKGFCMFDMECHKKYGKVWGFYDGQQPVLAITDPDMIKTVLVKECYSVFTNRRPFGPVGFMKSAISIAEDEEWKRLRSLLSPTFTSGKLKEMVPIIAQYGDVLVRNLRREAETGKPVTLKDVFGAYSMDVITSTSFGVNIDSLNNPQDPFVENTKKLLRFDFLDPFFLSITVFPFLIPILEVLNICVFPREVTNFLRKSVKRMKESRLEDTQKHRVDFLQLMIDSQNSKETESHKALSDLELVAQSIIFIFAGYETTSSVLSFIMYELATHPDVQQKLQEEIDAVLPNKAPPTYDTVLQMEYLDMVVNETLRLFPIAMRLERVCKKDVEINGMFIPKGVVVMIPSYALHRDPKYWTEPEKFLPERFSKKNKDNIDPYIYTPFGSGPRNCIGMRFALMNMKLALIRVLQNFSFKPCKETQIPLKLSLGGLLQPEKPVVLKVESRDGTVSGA
CYP1A2, sequence (P05177 whole entry): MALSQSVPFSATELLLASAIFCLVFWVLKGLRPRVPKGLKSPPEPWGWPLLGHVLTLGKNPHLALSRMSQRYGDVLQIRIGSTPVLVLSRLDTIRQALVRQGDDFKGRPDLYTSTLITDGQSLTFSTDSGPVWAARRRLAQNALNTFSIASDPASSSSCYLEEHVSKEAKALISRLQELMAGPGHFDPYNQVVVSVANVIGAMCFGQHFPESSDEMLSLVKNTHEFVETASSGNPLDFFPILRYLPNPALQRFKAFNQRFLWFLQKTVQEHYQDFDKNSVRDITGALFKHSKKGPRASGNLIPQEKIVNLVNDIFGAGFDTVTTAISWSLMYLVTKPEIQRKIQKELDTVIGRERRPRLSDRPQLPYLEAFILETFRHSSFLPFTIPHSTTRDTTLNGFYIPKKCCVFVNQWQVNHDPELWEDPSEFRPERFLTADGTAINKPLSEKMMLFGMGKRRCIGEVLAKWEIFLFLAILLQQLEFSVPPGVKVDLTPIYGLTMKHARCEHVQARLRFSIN
CYP2D6, sequence (P10635 whole entry): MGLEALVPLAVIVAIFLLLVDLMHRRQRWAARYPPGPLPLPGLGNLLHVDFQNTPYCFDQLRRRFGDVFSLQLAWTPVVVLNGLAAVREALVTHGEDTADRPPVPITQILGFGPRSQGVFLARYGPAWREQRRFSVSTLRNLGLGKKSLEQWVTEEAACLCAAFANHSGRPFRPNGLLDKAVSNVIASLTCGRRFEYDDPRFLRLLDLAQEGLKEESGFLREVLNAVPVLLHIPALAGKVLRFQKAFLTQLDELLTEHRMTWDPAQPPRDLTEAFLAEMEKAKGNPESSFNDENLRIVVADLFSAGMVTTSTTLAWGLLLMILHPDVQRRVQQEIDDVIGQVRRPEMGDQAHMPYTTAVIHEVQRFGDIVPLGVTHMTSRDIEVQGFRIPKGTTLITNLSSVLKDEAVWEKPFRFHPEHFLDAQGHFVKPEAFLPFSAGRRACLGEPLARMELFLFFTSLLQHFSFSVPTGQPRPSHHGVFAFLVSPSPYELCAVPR
CYP2C9, sequence (P11712 whole entry): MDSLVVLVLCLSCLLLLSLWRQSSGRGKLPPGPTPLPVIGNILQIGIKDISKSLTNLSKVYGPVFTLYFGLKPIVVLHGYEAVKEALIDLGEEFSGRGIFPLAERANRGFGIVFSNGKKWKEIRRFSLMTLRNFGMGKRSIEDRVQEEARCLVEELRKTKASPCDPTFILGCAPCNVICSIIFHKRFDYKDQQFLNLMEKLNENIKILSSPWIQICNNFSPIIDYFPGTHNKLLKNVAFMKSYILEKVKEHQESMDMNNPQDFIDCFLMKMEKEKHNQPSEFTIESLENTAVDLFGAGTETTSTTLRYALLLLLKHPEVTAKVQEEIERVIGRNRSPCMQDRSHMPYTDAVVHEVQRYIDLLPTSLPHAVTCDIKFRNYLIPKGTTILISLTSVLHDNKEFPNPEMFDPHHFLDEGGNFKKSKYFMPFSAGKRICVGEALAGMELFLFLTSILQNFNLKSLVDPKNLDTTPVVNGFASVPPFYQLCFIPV
CYP2C8, sequence (P10632 whole entry): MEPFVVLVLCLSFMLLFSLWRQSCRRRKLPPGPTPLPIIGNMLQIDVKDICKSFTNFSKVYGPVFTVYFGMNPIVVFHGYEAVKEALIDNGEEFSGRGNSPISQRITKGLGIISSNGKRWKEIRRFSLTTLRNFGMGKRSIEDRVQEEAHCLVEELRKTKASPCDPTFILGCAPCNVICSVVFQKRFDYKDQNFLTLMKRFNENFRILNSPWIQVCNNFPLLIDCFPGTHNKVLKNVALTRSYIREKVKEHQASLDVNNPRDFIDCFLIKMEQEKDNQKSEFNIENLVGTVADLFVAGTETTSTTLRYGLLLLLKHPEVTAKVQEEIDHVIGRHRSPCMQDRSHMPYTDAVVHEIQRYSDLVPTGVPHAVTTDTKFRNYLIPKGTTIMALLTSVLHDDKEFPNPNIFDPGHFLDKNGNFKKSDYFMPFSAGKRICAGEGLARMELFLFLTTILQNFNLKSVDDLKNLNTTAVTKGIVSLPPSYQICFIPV
Source text for vaginal hyperalgesia: The visceromotor response (VMR) to vaginal distension was used in conscious animals as an objective measure of vaginal sensitivity. […] To measure VMR response, 2 Teflon-coated wire electrodes were sutured in the external oblique abdominal muscle, and tunneled subcutaneously to be exteriorized at the base of the neck for future access. On the day of VMR assessment, a lubricated small balloon (1 cm length) was inserted into the mid-vaginal canal. The balloon catheter was secured to the base of the tail and connected to a volume controller/timing device (infusion pump) for balloon distension. The vaginal balloon was inflated to ramp intensities of distension (0.05 ml increments every 20 sec.) to a maximal volume of 0.8 ml. The electrodes were connected to an amplifier (Animal Bio Amp, ADInstrunnents), and the abdominal electromyographic signal was recorded using a data acquisition system (PowerLab, ADInstrunnents) for off-line analysis using LabChart version 7. The number of abdominal muscle contractions was counted manually for each 0.1 ml distension step, as an index of vaginal pain. […] All data were expressed as mean±standard deviation (s.d.), for the number (n) of measured rats per group. […] Planned comparison of means (matched-volume versus vehicle) was performed using a Bonferroni post hoc test, provided that a main effect was detected. […]

As to `Cc1cnc(-c2cc(OC(C)C(C)O)cc(C(=O)N[C@H](C)c3cnc(C(F)(F)F)nc3)c2)s1` (single isomer, unassigned) [Example 163], the IC50 at CYP1A2, against CYP2D6, on CYP3A4 [1], on CYP2C9, at CYP3A4 [2] and at CYP2C8 was over 20 µM in each case. Moreover, the “Rat hepatocyte Fmax” value in the data set with rat hepatocytes is 53%. The “Human liver microsome Fmax” value in [3] was 100%.
With `Cc1cnc(-c2cc(O[C@@H]3CCOC3)cc(C(=O)N[C@H](C)c3cnc(C(F)(F)F)nc3)c2)s1` [Example 11, 3-(5-Methyl-1,3-thiazol-2-yl)-5-[(3R)-tetrahydrofuran-3-yloxy]-N-{(1R)-1-[2-(trifluoromethyl)pyrimidin-5-yl]ethyl}benzamide], the “vaginal hyperalgesia compared to vehicle-treated animals” value with vaginal hyperalgesia (15 mg/kg oral b.i.d. during 2 weeks) is “decreased vaginal hyperalgesia”. In the data set on vaginal hyperalgesia (15 mg/kg oral b.i.d. for 2 weeks, 6 weeks post-implantation (off-drug), mean ± s.d.), the “AUC of cumulative number of abdominal contractions against vaginal distension volume” value was 1.64 ± 1.53 (17). The “Rat hepatocyte Fmax” value in the data set with rat hepatocytes is on record as 52%. Besides, the “Human liver microsome Fmax” value in data set [3] is listed as 57%. The “Test compound turnover after 4 h” value in data set [4] is listed as 12%. For the same compound, the half-life was 8.8 h in [5] (iv, 0.5 mg/kg i.v., read-out: Dog t½ i.v. (converted)) and 12 h in data set [5] (po, 1 mg/kg p.o., read-out: Dog t½ p.o. (converted)). Also, the bioavailability – broadly, dose-corrected exposure relative to a reference, in per cent – in data set [5] (oral, 1 mg/kg p.o., 0.5 mg/kg i.v., read-out: Dog Bioavailability (BA)) was found to be 70%. Further, the “Efficacy mouse CFA model (von Frey response threshold)” value in data set [6] is 0.682 g ± 0.122 (*). Further, in data set [7], the “Paw withdrawal threshold 6 hour-post drug” value was 639 ± 48 gf (*).
